Results published in article PMC9322761, “Design, Synthesis and Biological Characterization of Histone Deacetylase 8 (HDAC8) Proteolysis Targeting Chimeras (PROTACs) with Anti-Neuroblastoma Activity” (International Journal of Molecular Sciences, 2022).

Columns and labels:
[1] = Non-enzymatic stability in assay medium (HPLC); settings: 37 °C, 10 µM, pH7.4
Protocol: Non-enzymatic stability of selected final compounds was determined using 10 µM concentration of the tested PROTACs in one of the following assay media; Dulbecco’s modified Eagle medium (DMEM) (50%)/dimethylsulfoxid (10%)/acetonitrile (40%) or DMEM (50%)/dimethylsulfoxid (10%)/methanol (40%) mixture at pH7.4. The formed solution mixtures were incubated for 0, 6, 12, and 24 h at 37 °C. Analyte decomposition was monitored by HPLC using XTerra RP18 column (3.5 mm, 3.9 mm × 100 mm) from the manufacturer Waters (Milford, MA, USA) and two LC-10AD pumps, a SPD-M10A VP PDA detector, and a SIL-HT autosampler, all from the manufacturer Shimadzu (Kyoto, Japan).

[2] = target: HDAC1 (Homo sapiens, UniProt Q13547); assay: HDAC1 degradation in SK-N-BE(2)-C cells (Western blot); settings: 6 h, up to 10 µM
Protocol: Total HDAC6, total HDAC1, total HDAC8, and acetyl-histone H4 expression levels, were assessed by Western blot. Total GAPDH protein levels served as a loading control (LC). * unspecific bands obtained through reprobing of the membrane.

[3] = target: T1, HDAC6 (Homo sapiens, UniProt Q9UBN7); assay: HDAC6 degradation in SK-N-BE(2)-C cells (Western blot); settings: 6 h, up to 10 µM
T1 sequence (Q9UBN7 1-1215): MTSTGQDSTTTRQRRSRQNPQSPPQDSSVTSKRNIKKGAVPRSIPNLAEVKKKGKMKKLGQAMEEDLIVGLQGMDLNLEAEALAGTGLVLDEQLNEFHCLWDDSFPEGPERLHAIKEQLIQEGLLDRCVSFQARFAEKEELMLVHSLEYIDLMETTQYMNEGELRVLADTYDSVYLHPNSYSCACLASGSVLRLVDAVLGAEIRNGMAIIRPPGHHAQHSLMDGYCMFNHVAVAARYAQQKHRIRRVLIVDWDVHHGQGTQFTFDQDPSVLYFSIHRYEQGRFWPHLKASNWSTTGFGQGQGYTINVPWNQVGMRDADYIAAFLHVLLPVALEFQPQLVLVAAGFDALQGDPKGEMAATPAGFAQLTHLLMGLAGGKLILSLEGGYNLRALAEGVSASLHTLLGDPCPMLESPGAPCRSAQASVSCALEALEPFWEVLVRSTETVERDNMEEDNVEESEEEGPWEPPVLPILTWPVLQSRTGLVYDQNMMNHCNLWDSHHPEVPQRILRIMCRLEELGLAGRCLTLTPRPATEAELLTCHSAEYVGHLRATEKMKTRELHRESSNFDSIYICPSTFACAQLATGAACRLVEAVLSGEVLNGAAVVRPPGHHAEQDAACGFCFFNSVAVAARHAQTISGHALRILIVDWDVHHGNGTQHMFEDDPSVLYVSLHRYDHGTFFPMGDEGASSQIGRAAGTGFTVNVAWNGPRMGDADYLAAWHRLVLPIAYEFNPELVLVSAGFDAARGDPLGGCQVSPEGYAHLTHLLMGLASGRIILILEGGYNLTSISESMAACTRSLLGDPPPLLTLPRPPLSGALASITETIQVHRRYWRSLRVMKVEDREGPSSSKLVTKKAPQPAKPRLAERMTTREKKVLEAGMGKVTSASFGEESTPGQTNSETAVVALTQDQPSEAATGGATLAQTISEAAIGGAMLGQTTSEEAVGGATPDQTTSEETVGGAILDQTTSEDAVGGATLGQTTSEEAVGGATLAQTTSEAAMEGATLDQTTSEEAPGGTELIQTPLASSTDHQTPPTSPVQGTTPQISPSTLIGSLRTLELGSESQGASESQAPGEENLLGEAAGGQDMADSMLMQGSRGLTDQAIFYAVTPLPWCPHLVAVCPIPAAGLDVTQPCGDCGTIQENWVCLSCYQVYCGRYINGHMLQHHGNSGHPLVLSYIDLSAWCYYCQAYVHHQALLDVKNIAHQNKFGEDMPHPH
Protocol: Figure 6 (A) SK-N-BE(2)-C neuroblastoma cells were treated for indicated time points with 10 µM of PROTACs. Degradation of HDAC8 and acetylation of HDAC8 target was analyzed via Western blot. […] Acetylation of HDAC8 target SMC3 and HDAC6 target tubulin, as well as total HDAC8 levels, were assessed by Western blot. Quantified ac-SMC3 or ac-tubulin expression, respectively, was normalized to the respective tubulin loading control and to the solvent control (DMSO). This quantification is reflected by the numbers below each blot. […] Total HDAC6, total HDAC1, total HDAC8, and acetyl-histone H4 expression levels, were assessed by Western blot. Total GAPDH protein levels served as a loading control (LC). * unspecific bands obtained through reprobing of the membrane.
HDAC6 degradation and tubulin hyperacetylation by PROTACs and control compounds
Left: SK-N-BE(2)-C neuroblastoma cells were treated for 6 h with indicated PROTACs (10 µM
each). Total HDAC6, acetyl-tubulin and total tubulin (LC #1: loading control #1) expression levels,
were assessed by western blot. Total GAPDH protein levels served as a second loading control
(LC #2). Right: presentation of quantified acetyl-tubulin levels, normalized to the DMSO control

Sequence of HDAC1 (Q13547 whole entry): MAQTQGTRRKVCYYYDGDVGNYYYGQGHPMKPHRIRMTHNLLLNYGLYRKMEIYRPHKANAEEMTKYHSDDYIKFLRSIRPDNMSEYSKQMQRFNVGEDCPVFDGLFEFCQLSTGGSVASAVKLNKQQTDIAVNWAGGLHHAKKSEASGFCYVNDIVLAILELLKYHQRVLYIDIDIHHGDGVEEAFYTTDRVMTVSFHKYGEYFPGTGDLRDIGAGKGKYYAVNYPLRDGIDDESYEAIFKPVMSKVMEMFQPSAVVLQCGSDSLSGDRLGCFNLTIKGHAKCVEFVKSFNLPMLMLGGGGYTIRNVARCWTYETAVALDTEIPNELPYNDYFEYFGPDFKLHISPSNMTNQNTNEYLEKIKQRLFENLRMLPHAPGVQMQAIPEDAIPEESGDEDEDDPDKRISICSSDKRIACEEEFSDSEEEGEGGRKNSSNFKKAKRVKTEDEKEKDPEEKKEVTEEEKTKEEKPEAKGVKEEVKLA

With COc1ccc(C(=O)NO)cc1NC(=O)c1ccc(NC(=O)CCCCCCCNc2cccc3c2C(=O)N(C2CCC(=O)NC2=O)C3=O)cc1 (stereo not shown) [CRBN_1b] the “Non-enzymatic stability, compound remaining” value ([1]; 6 h) was 100.0%, the “Non-enzymatic stability, compound remaining” value ([1]; 24 h) was 91.6% and the HDAC1 degradation [2] was “do not degrade”. The HDAC6 degradation [3] was “do not degrade”.
